Data: PubChem BioAssay AID2060892 (Molecular Pharmacology Branch, DTP, NCI, 2025)

Tested on: HOP-62 complex spheroids with HUVEC/MSC, viability
Test: Anticancer human tumor HOP-62 cell line growth inhibition [RAS];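 note: spheroids exposed to agents for seven days before readout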;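 for viability, T/C: 100% = DMSO vehicle control viability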
Settings: for IC50: curve of first compound; for viability, T/C: stronger effect = lower value
Procedure, shortened: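 Agents were tested in combination matrices in half-log decrements from a top concentration at or near clinical Cmax (10 microM if undetermined). Targets were multi-cell spheroids of tumour lines plus HUVEC and MSC stromal cells.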

[1] = second compound 0.0316 µM, first compound 0.0316 µM
[2] = second compound 0.0316 µM, first compound 0.1 µM
[3] = second compound 0.0316 µM, first compound 0.316 µM
[4] = second compound 0.0316 µM, first compound 1 µM
[5] = second compound 0.1 µM, first compound 0.0316 µM
[6] = second compound 0.1 µM, first compound 0.1 µM
[7] = second compound 0.1 µM, first compound 0.316 µM
[8] = second compound 0.1 µM, first compound 1 µM
[9] = second compound 0.316 µM, first compound 0.0316 µM
[10] = second compound 0.316 µM, first compound 0.1 µM
[11] = second compound 0.316 µM, first compound 0.316 µM
[12] = second compound 0.316 µM, first compound 1 µM
[13] = second compound 1 µM, first compound 0.0316 µM
[14] = second compound 1 µM, first compound 0.1 µM
[15] = second compound 1 µM, first compound 0.316 µM
[16] = second compound 1 µM, first compound 1 µM
[17] = second compound 3.16 µM, first compound 0.0316 µM
[18] = second compound 3.16 µM, first compound 0.1 µM
[19] = second compound 3.16 µM, first compound 0.316 µM
[20] = second compound 3.16 µM, first compound 1 µM
[21] = second compound 10 µM, first compound 0.0316 µM
[22] = second compound 10 µM, first compound 0.1 µM
[23] = second compound 10 µM, first compound 0.316 µM
[24] = second compound 10 µM, first compound 1 µM

## C=CC(=O)N1CCN(c2nc(OCC3CCCN3C)nc3c(F)c(-c4nc(N)cc(C)c4C(F)(F)F)c(Cl)cc23)C(C)C1 (stereo unspecified) + C#Cc1c(F)ccc2cc(O)cc(-c3ncc4c(N5CC6CCC(C5)N6)nc(OCC56CCCN5CC(F)C6)nc4c3F)c12
Second compound 0.0316 µM
  IC50: > 1000 nM
Second compound 0.1 µM
  IC50: > 1000 nM
Second compound 0.316 µM
  IC50: > 1000 nM
Second compound 1 µM
  IC50: > 1000 nM
Second compound 3.16 µM
  IC50: > 1000 nM
Second compound 10 µM
  IC50: < 3.16 nM
Second compound 0.0316 µM, first compound 0.00316 µM
  viability, T/C: 79.5%
Second compound 0.0316 µM, first compound 0.01 µM
  viability, T/C: 71.2%
[1]
  viability, T/C: 65.5%
[2]
  viability, T/C: 68.2%
[3]
  viability, T/C: 70.6%
[4]
  viability, T/C: 62.1%
Second compound 0.1 µM, first compound 0.00316 µM
  viability, T/C: 86.7%
Second compound 0.1 µM, first compound 0.01 µM
  viability, T/C: 69.3%
[5]
  viability, T/C: 63.2%
[6]
  viability, T/C: 64.7%
[7]
  viability, T/C: 69.1%
[8]
  viability, T/C: 63%
Second compound 0.316 µM, first compound 0.00316 µM
  viability, T/C: 81.7%
Second compound 0.316 µM, first compound 0.01 µM
  viability, T/C: 68.9%
[9]
  viability, T/C: 62.9%
[10]
  viability, T/C: 58.5%
[11]
  viability, T/C: 61.1%
[12]
  viability, T/C: 61.8%
Second compound 1 µM, first compound 0.00316 µM
  viability, T/C: 90%
Second compound 1 µM, first compound 0.01 µM
  viability, T/C: 73.5%
[13]
  viability, T/C: 63.1%
[14]
  viability, T/C: 57.9%
[15]
  viability, T/C: 59.2%
[16]
  viability, T/C: 58.4%
Second compound 3.16 µM, first compound 0.00316 µM
  viability, T/C: 72.7%
Second compound 3.16 µM, first compound 0.01 µM
  viability, T/C: 70.1%
[17]
  viability, T/C: 57.4%
[18]
  viability, T/C: 61.1%
[19]
  viability, T/C: 53.9%
[20]
  viability, T/C: 50%
Second compound 10 µM, first compound 0.00316 µM
  viability, T/C: 48%
Second compound 10 µM, first compound 0.01 µM
  viability, T/C: 49.5%
[21]
  viability, T/C: 43.4%
[22]
  viability, T/C: 48.4%
[23]
  viability, T/C: 43.7%
[24]
  viability, T/C: 37%

## CC(=O)OC12COC1CC(O)C1(C)C(=O)C(O)C3=C(C)C(OC(=O)C(O)C(NC(=O)OC(C)(C)C)c4ccccc4)CC(O)(C(OC(=O)c4ccccc4)C21)C3(C)C (stereo unspecified) + C#Cc1c(F)ccc2cc(O)cc(-c3ncc4c(N5CC6CCC(C5)N6)nc(OCC56CCCN5CC(F)C6)nc4c3F)c12
Second compound 0.0316 µM
  IC50: < 31.6 nM
Second compound 0.1 µM
  IC50: < 31.6 nM
Second compound 0.316 µM
  IC50: < 31.6 nM
Second compound 1 µM
  IC50: < 31.6 nM
Second compound 3.16 µM
  IC50: < 31.6 nM
Second compound 10 µM
  IC50: < 31.6 nM
[1]
  viability, T/C: 11.7%
[2]
  viability, T/C: 13.2%
[3]
  viability, T/C: 14.1%
[4]
  viability, T/C: 19.5%
Second compound 0.0316 µM, first compound 3.16 µM
  viability, T/C: 19.5%
Second compound 0.0316 µM, first compound 10 µM
  viability, T/C: 26.5%
[5]
  viability, T/C: 14.5%
[6]
  viability, T/C: 13.9%
[7]
  viability, T/C: 17.6%
[8]
  viability, T/C: 17.7%
Second compound 0.1 µM, first compound 3.16 µM
  viability, T/C: 18.7%
Second compound 0.1 µM, first compound 10 µM
  viability, T/C: 27.1%
[9]
  viability, T/C: 12%
[10]
  viability, T/C: 12.8%
[11]
  viability, T/C: 16.6%
[12]
  viability, T/C: 13.6%
Second compound 0.316 µM, first compound 3.16 µM
  viability, T/C: 18.4%
Second compound 0.316 µM, first compound 10 µM
  viability, T/C: 23.5%
[13]
  viability, T/C: 14.7%
[14]
  viability, T/C: 10.3%
[15]
  viability, T/C: 13.1%
[16]
  viability, T/C: 11.6%
Second compound 1 µM, first compound 3.16 µM
  viability, T/C: 17.1%
Second compound 1 µM, first compound 10 µM
  viability, T/C: 15.2%
[17]
  viability, T/C: 9.36%
[18]
  viability, T/C: 13.4%
[19]
  viability, T/C: 13.2%
[20]
  viability, T/C: 14%
Second compound 3.16 µM, first compound 3.16 µM
  viability, T/C: 17.8%
Second compound 3.16 µM, first compound 10 µM
  viability, T/C: 17.2%
[21]
  viability, T/C: 13.1%
[22]
  viability, T/C: 12%
[23]
  viability, T/C: 13.8%
[24]
  viability, T/C: 13.7%
Second compound 10 µM, first compound 3.16 µM
  viability, T/C: 14.8%
Second compound 10 µM, first compound 10 µM
  viability, T/C: 21.3%

## CCc1c2c(nc3ccc(O)cc13)-c1cc3c(c(=O)n1C2)COC(=O)[C@]3(O)CC + C#Cc1c(F)ccc2cc(O)cc(-c3ncc4c(N5CC6CCC(C5)N6)nc(OCC56CCCN5CC(F)C6)nc4c3F)c12
Second compound 0.0316 µM
  IC50: 1.14 nM
Second compound 0.1 µM
  IC50: 1.31 nM
Second compound 0.316 µM
  IC50: 1.19 nM
Second compound 1 µM
  IC50: 1.23 nM
Second compound 3.16 µM
  IC50: 0.972 nM
Second compound 10 µM
  IC50: < 0.949 nM
Second compound 0.0316 µM, first compound 0.000949 µM
  viability, T/C: 56.3%
Second compound 0.0316 µM, first compound 0.003 µM
  viability, T/C: 16.6%
Second compound 0.0316 µM, first compound 0.00949 µM
  viability, T/C: 11.4%
Second compound 0.0316 µM, first compound 0.03 µM
  viability, T/C: 5.6%
Second compound 0.0316 µM, first compound 0.0949 µM
  viability, T/C: 3.66%
Second compound 0.0316 µM, first compound 0.3 µM
  viability, T/C: 2.78%
Second compound 0.1 µM, first compound 0.000949 µM
  viability, T/C: 62.9%
Second compound 0.1 µM, first compound 0.003 µM
  viability, T/C: 15.6%
Second compound 0.1 µM, first compound 0.00949 µM
  viability, T/C: 10.1%
Second compound 0.1 µM, first compound 0.03 µM
  viability, T/C: 4.19%
Second compound 0.1 µM, first compound 0.0949 µM
  viability, T/C: 5.31%
Second compound 0.1 µM, first compound 0.3 µM
  viability, T/C: 3.12%
Second compound 0.316 µM, first compound 0.000949 µM
  viability, T/C: 59.1%
Second compound 0.316 µM, first compound 0.003 µM
  viability, T/C: 13.8%
Second compound 0.316 µM, first compound 0.00949 µM
  viability, T/C: 8.76%
Second compound 0.316 µM, first compound 0.03 µM
  viability, T/C: 5.75%
Second compound 0.316 µM, first compound 0.0949 µM
  viability, T/C: 3.69%
Second compound 0.316 µM, first compound 0.3 µM
  viability, T/C: 3.17%
Second compound 1 µM, first compound 0.000949 µM
  viability, T/C: 60.8%
Second compound 1 µM, first compound 0.003 µM
  viability, T/C: 12.7%
Second compound 1 µM, first compound 0.00949 µM
  viability, T/C: 7.48%
Second compound 1 µM, first compound 0.03 µM
  viability, T/C: 3.47%
Second compound 1 µM, first compound 0.0949 µM
  viability, T/C: 3.07%
Second compound 1 µM, first compound 0.3 µM
  viability, T/C: 2.06%
Second compound 3.16 µM, first compound 0.000949 µM
  viability, T/C: 51.1%
Second compound 3.16 µM, first compound 0.003 µM
  viability, T/C: 10.9%
Second compound 3.16 µM, first compound 0.00949 µM
  viability, T/C: 6.45%
Second compound 3.16 µM, first compound 0.03 µM
  viability, T/C: 3.95%
Second compound 3.16 µM, first compound 0.0949 µM
  viability, T/C: 2.84%
Second compound 3.16 µM, first compound 0.3 µM
  viability, T/C: 2.67%
Second compound 10 µM, first compound 0.000949 µM
  viability, T/C: 26.9%
Second compound 10 µM, first compound 0.003 µM
  viability, T/C: 11.7%
Second compound 10 µM, first compound 0.00949 µM
  viability, T/C: 8.96%
Second compound 10 µM, first compound 0.03 µM
  viability, T/C: 4.94%
Second compound 10 µM, first compound 0.0949 µM
  viability, T/C: 5.28%
Second compound 10 µM, first compound 0.3 µM
  viability, T/C: 3.97%
